Measurements published in ChEMBL document CHEMBL1201862, “PubChem BioAssay data set” (2004).
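1) Cells in 96-well plates. 2) Compound, 48 h, 5 concentrations. 3) Linear interpolation between surrounding doses. 4) Unreached endpoint = highest concentration. At the GI50, growth is halved.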 Activity calls are given as the source filed them. No stated cut-off is given here; in the data, active = GI50 up to about 1.1 µM and inactive = higher.

Tests used:
Experiment in all cases: DTP human tumour cell line panel, 48 h
HL-60 = test system: HL-60
MDA-N = test system: MDA-N
MDA-MB-435 = test system: MDA-MB-435
UACC-257 = test system: UACC-257
U-251 = test system: U-251
BT-549 = test system: BT-549
NCI-H460 = test system: NCI-H460
UACC-62 = test system: UACC-62
SW-620 = test system: SW-620
LOX IMVI = test system: LOX IMVI
HOP-62 = test system: HOP-62
A549 = test system: A549
SF-295 = test system: SF-295
NCI-H226 = test system: NCI-H226
K562 = test system: K562
Hs-578T = test system: Hs-578T
KM12 = test system: KM12
CAKI-1 = test system: CAKI-1
SK-MEL-2 = test system: SK-MEL-2
HCT-116 = test system: HCT-116
NCI-H23 = test system: NCI-H23
SF-539 = test system: SF-539
M14 = test system: M14
SNB-75 = test system: SNB-75
SF-268 = test system: SF-268
COLO 205 = test system: COLO 205
SK-OV-3 = test system: SK-OV-3
MDA-MB-231 = test system: MDA-MB-231
OVCAR-5 = test system: OVCAR-5
OVCAR-8 = test system: OVCAR-8
OVCAR-3 = test system: OVCAR-3
A498 = test system: A498
Malme-3M = test system: Malme-3M
SR = test system: SR
EKVX = test system: EKVX
NCI-H522 = test system: NCI-H522
T47D = test system: T47D
SNB-19 = test system: SNB-19
ACHN = test system: ACHN
SK-MEL-5 = test system: SK-MEL-5
CCRF-CEM = test system: CCRF-CEM
HT-29 = test system: HT-29
NCI/ADR-RES = test system: NCI/ADR-RES
PC-3 = test system: PC-3
IGROV-1 = test system: IGROV-1
MCF7 = test system: MCF7
MOLT-4 = test system: MOLT-4
UO-31 = test system: UO-31
786-0 = test system: 786-0
OVCAR-4 = test system: OVCAR-4
SN12C = test system: SN12C
DU-145 = test system: DU-145
HCT-15 = test system: HCT-15
TK-10 = test system: TK-10
HCC 2998 = test system: HCC 2998
SK-MEL-28 = test system: SK-MEL-28
RPMI-8226 = test system: RPMI-8226
RXF 393 = test system: RXF 393
HOP-92 = test system: HOP-92

Measured: GI50

Nc1c(C(=O)O)nnc2cc(Cl)ccc12
inactive: HL-60 > 100 µM | MDA-N > 100 µM | MDA-MB-435 > 100 µM | UACC-257 > 100 µM | U-251 > 100 µM | BT-549 > 100 µM | NCI-H460 > 100 µM | UACC-62 32 µM | SW-620 > 100 µM | LOX IMVI > 100 µM | HOP-62 > 100 µM | A549 > 100 µM | SF-295 > 100 µM | NCI-H226 > 100 µM | K562 > 100 µM | Hs-578T > 100 µM | KM12 > 100 µM | CAKI-1 > 100 µM | SK-MEL-2 > 100 µM | HCT-116 > 100 µM | NCI-H23 > 100 µM | SF-539 > 100 µM | M14 > 100 µM | SNB-75 > 100 µM | SF-268 > 100 µM | COLO 205 > 100 µM | SK-OV-3 > 100 µM | MDA-MB-231 > 100 µM | OVCAR-5 > 100 µM | OVCAR-8 > 100 µM | OVCAR-3 > 100 µM | A498 85.3 µM | Malme-3M > 100 µM | SR > 100 µM | EKVX > 100 µM | NCI-H522 > 100 µM | T47D > 100 µM | SNB-19 > 100 µM | ACHN 97.5 µM | SK-MEL-5 > 100 µM | CCRF-CEM > 100 µM | HT-29 > 100 µM | NCI/ADR-RES > 100 µM | PC-3 > 100 µM | IGROV-1 > 100 µM | MCF7 > 100 µM | MOLT-4 > 100 µM | UO-31 > 100 µM | 786-0 > 100 µM | OVCAR-4 > 100 µM | SN12C > 100 µM | DU-145 > 100 µM | TK-10 > 100 µM | HCC 2998 > 100 µM
> 100 µM: HCT-15

N=c1oc2ccc3ccccc3c2cc1-c1nc(O)c2ccccc2n1
inactive: HL-60 8.73 µM | MDA-N 46.2 µM | MDA-MB-435 58.3 µM | UACC-257 42.5 µM | U-251 19.2 µM | BT-549 15.1 µM | NCI-H460 32.8 µM | UACC-62 12.8 µM | SW-620 36.8 µM | LOX IMVI 38.5 µM | SK-MEL-28 95.7 µM | HOP-62 15.8 µM | A549 20.7 µM | SF-295 30.2 µM | NCI-H226 37.1 µM | K562 19.7 µM | Hs-578T 20.5 µM | KM12 11 µM | CAKI-1 43.5 µM | RPMI-8226 42.6 µM | SK-MEL-2 14.4 µM | HCT-116 24.4 µM | SF-539 31.2 µM | M14 25.9 µM | SNB-75 2.44 µM | SF-268 30.8 µM | COLO 205 > 100 µM | SK-OV-3 19.9 µM | MDA-MB-231 24.1 µM | OVCAR-5 96.6 µM | OVCAR-8 26.7 µM | RXF 393 10.6 µM | Malme-3M 23.4 µM | SR 26.5 µM | EKVX 19.5 µM | NCI-H522 3.27 µM | HOP-92 15.1 µM | T47D 30.7 µM | SNB-19 27.6 µM | ACHN 11.1 µM | SK-MEL-5 44.5 µM | HT-29 13 µM | NCI/ADR-RES 14.2 µM | PC-3 13.4 µM | IGROV-1 16 µM | MCF7 14.4 µM | MOLT-4 15.8 µM | UO-31 3.23 µM | 786-0 24.3 µM | OVCAR-4 20.6 µM | SN12C 74 µM | DU-145 36.4 µM | TK-10 21 µM | HCC 2998 29.6 µM
19.9 µM: HCT-15

COC(=O)c1cc(=O)nc2sc3cccc(C)c3n12
inactive: HL-60 19 µM | MDA-N 44 µM | MDA-MB-435 42 µM | UACC-257 65 µM | U-251 22.2 µM | BT-549 55.6 µM | NCI-H460 68.7 µM | UACC-62 46.2 µM | SW-620 30.3 µM | LOX IMVI 14.8 µM | SK-MEL-28 62.8 µM | HOP-62 > 100 µM | A549 46.9 µM | SF-295 67 µM | NCI-H226 18.7 µM | K562 30.3 µM | Hs-578T 56.2 µM | KM12 > 100 µM | CAKI-1 24.6 µM | RPMI-8226 22 µM | SK-MEL-2 30.3 µM | HCT-116 28.8 µM | NCI-H23 55 µM | SF-539 34.1 µM | M14 33.1 µM | SNB-75 > 100 µM | SF-268 61.1 µM | COLO 205 14.3 µM | SK-OV-3 > 100 µM | MDA-MB-231 24.8 µM | OVCAR-5 38 µM | OVCAR-8 20.9 µM | OVCAR-3 23 µM | RXF 393 56.1 µM | Malme-3M 23.9 µM | SR 24 µM | EKVX 29.6 µM | NCI-H522 23.2 µM | HOP-92 30.2 µM | T47D 37.8 µM | SNB-19 46.3 µM | ACHN 20.9 µM | SK-MEL-5 60.7 µM | CCRF-CEM 20.2 µM | HT-29 28.5 µM | NCI/ADR-RES > 100 µM | PC-3 21 µM | IGROV-1 92 µM | MCF7 52.5 µM | MOLT-4 28.6 µM | 786-0 21.3 µM | OVCAR-4 > 100 µM | SN12C 40.6 µM | DU-145 > 100 µM | TK-10 > 100 µM
43 µM: HCT-15
